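GI50 is the concentration that inhibits growth by half. TGI denotes the concentration required for complete inhibition of growth.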
Experiments:
Assay in all cases: DTP human tumour cell line panel, 384-well format; in the data active means GI50 below about 0.43 µM; inactive means the rest
[1] = system: 786-0 renal
[2] = system: A498 renal
[3] = system: A549 NSCLC
[4] = system: ACHN renal
[5] = system: BT-549 breast
[6] = system: CAKI-1 renal
[7] = system: CCRF-CEM leukemia
[8] = system: DU-145 prostate
[9] = system: EKVX NSCLC
[10] = system: HCT-116 colon
[11] = system: HCT-15 colon
[12] = system: HL-60(TB) leukemia
[13] = system: HOP-62 NSCLC
[14] = system: HOP-92 NSCLC
[15] = system: HS 578T breast
[16] = system: HT29 colon
[17] = system: IGROV1 ovarian
[18] = system: K-562 leukemia
[19] = system: KM12 colon
[20] = system: LOX IMVI melanoma
[21] = system: M14 melanoma
[22] = system: MALME-3M melanoma
[23] = system: MCF7 breast
[24] = system: MDA-MB-231 breast
[25] = system: MDA-MB-435 melanoma
[26] = system: MDA-MB-468 breast
[27] = system: MOLT-4 leukemia
[28] = system: NCI-H226 lung
[29] = system: NCI-H23 lung
[30] = system: NCI-H322M lung
[31] = system: NCI-H522 lung
[32] = system: NCI/ADR-RES ovarian
[33] = system: OVCAR-3 ovarian
[34] = system: OVCAR-4 ovarian
[35] = system: OVCAR-5 ovarian
[36] = system: OVCAR-8 ovarian
[37] = system: PC-3 prostate
[38] = system: RPMI-8226 leukemia
[39] = system: RXF 393 renal
[40] = system: SF-268 CNS
[41] = system: SF-295 CNS
[42] = system: SF-539 CNS
[43] = system: SK-MEL-2 melanoma
[44] = system: SK-MEL-28 melanoma
[45] = system: SK-OV-3 ovarian
[46] = system: SN12C renal
[47] = system: SNB-19 CNS
[48] = system: SNB-75 CNS
[49] = system: SW-620 colon
[50] = system: T-47D breast
[51] = system: TK-10 renal
[52] = system: U251 glioblastoma
[53] = system: UACC-257 melanoma
[54] = system: UACC-62 melanoma
[55] = system: UO-31 renal

O=P1(NCCCl)OCCCN1CCCl (stereo not given)
inactive: GI50 [1] > 100 µM | GI50 [2] > 100 µM | GI50 [3] > 100 µM | GI50 [4] > 100 µM | GI50 [5] > 100 µM | GI50 [6] > 100 µM | GI50 [7] > 100 µM | GI50 [8] > 100 µM | GI50 [9] > 100 µM | GI50 [10] > 100 µM | GI50 [11] > 100 µM | GI50 [12] > 100 µM | GI50 [13] > 100 µM | GI50 [14] > 100 µM | GI50 [15] > 100 µM | GI50 [16] > 100 µM | GI50 [17] > 100 µM | GI50 [18] > 100 µM | GI50 [19] > 100 µM | GI50 [20] > 100 µM | GI50 [21] > 100 µM | GI50 [22] > 100 µM | GI50 [23] > 100 µM | GI50 [24] > 100 µM | GI50 [25] > 100 µM | GI50 [26] > 100 µM | GI50 [27] > 100 µM | GI50 [28] > 100 µM | GI50 [29] > 100 µM | GI50 [30] > 100 µM | GI50 [31] > 100 µM | GI50 [32] > 100 µM | GI50 [33] > 100 µM | GI50 [34] > 100 µM | GI50 [35] > 100 µM | GI50 [36] > 100 µM | GI50 [37] > 100 µM | GI50 [38] > 100 µM | GI50 [39] > 100 µM | GI50 [40] > 100 µM | GI50 [41] > 100 µM | GI50 [42] > 100 µM | GI50 [43] > 100 µM | GI50 [44] > 100 µM | GI50 [45] > 100 µM | GI50 [46] > 100 µM | GI50 [47] > 100 µM | GI50 [48] > 100 µM | GI50 [49] > 100 µM | GI50 [50] > 100 µM | GI50 [51] > 100 µM | GI50 [52] > 100 µM | GI50 [53] > 100 µM | GI50 [54] > 100 µM | GI50 [55] > 100 µM
> 100 µM: TGI [1] | TGI [2] | TGI [3] | TGI [4] | TGI [5] | TGI [6] | TGI [7] | TGI [8] | TGI [9] | TGI [10] | TGI [11] | TGI [12] | TGI [13] | TGI [14] | TGI [15] | TGI [16] | TGI [17] | TGI [18] | TGI [19] | TGI [20] | TGI [21] | TGI [22] | TGI [23] | TGI [24] | TGI [25] | TGI [26] | TGI [27] | TGI [28] | TGI [29] | TGI [30] | TGI [31] | TGI [32] | TGI [33] | TGI [34] | TGI [35] | TGI [36] | TGI [37] | TGI [38] | TGI [39] | TGI [40] | TGI [41] | TGI [42] | TGI [43] | TGI [44] | TGI [45] | TGI [46] | TGI [47] | TGI [48] | TGI [49] | TGI [50] | TGI [51] | TGI [52] | TGI [53] | TGI [54] | TGI [55]
